Reference: US7579504B2, “ABCA1 elevating compounds” (Gilead Sciences, Inc., priority 2005, dated 2009)

tested on: ABCA1 mRNA; assay: ABCA1 mRNA induction in THP-1 cells, QuantiGene branched DNA assay; format: cell-based; conditions: Homo sapiens, 18-20 hours, read-out: ABCA1 Induction Fold Increase over DMSO Vehicle
Experimental: Modulation of expression of ABCA1 mRNA levels by the compounds of the invention was determined in the following assays.
Induction of ABC1 in THP-1 cells, was measured using QuantiGene® branched DNA assay as per manufacturer's instructions. Cultures of THP-1 were grown to subconfluence in DMEM/10% FBS before replacement with DMEM/BSA and 10 and 3 μM concentrations of the test compounds in DMSO for 18-20 hours. After treatment of cells with compounds, the cells were lysed with lysis buffer at 37° C. for 20 minutes. The cell lysate and ABCA1 specific probe (Genospectra, Inc., Fremont, Calif.) mix were added to the 96 well capture plate and hybridized at 53° C. for 16-18 hours. The signal was amplified using the amplifier and label probes provided with the QuantiGene® assay followed by addition of a luminescent alkaline phosphatase substrate, dioxitane. Luminescence was quantified in Victor V plate reader.
Step 1 • Cells are lysed to release mRNA in the presence of target probes. Target mRNA from lysed cells was then captured by hybridization and transferred to the Capture Plate.
Step 2 • Signal amplification was performed by hybridization of the bDNA Amplifier and Label Probe.
Step 3 • Addition of chemiluminescence substrate yielded a QuantiGene® signal proportional to the amount of mRNA present in the sample.
Table 1 presents the relative fold increase in ABCA1 expression over DMSO for compounds of the invention when tested at a concentration of 10 μM.

| SMILES | fold induction at 10 µM |
| --- | --- |
| Cc1ccc(CNC(=O)[C@H]2CC[C@H](CN(Cc3ccccc3C)S(=O)(=O)c3ccccc3)CC2)cc1 [Compound 1, N-[(4-methylphenyl)methyl][4-({[(2-methylphenyl)methyl](phenylsulfonyl)amino}methyl)cyclohexyl]carboxamide] | 4.2 |
| Cc1ccc(CNC(=O)C2CCC(CN(Cc3cccc(F)c3F)S(=O)(=O)c3ccccc3)CC2)cc1 (stereo not drawn) [Compound 2, [4-({[(2,3-difluorophenyl)methyl](phenylsulfonyl)amino}methyl)cyclohexyl]-N-[(4-methylphenyl)methyl]carboxamide] | 6.3 |
| Cc1ccc(CNC(=O)C2CCC(CN(Cc3ccc(F)cc3)S(=O)(=O)c3ccccc3)CC2)cc1 (stereo not drawn) [Compound 3, [4-({[(4-fluorophenyl)methyl](phenylsulfonyl)amino}methyl)cyclohexyl]-N-[(4-methylphenyl)methyl]carboxamide] | 4.8 |
| Cc1ccc(CNC(=O)C2CCC(CN(Cc3ccccc3)S(=O)(=O)c3ccccc3)CC2)cc1 (stereo not drawn) [Compound 4, N-[(4-methylphenyl)methyl](4-{[benzyl(phenylsulfonyl)amino]methyl}cyclohexyl)carboxamide] | 3.8 |
| Cc1ccc(CNC(=O)C2CCC(CN([C@H](C)c3ccccc3)S(=O)(=O)c3ccccc3)CC2)cc1 (stereo partly drawn) [Compound 5, (4-{[((1R)-1-phenylethyl)(phenylsulfonyl)amino]methyl}cyclohexyl)-N-[(4-methylphenyl)methyl]carboxamide] | 6.4 |
| Cc1ccc(CNC(=O)[C@H]2CC[C@H](CN([C@@H](C)c3ccccc3)S(=O)(=O)c3ccccc3)CC2)cc1 [Compound 6, (4-{[((1S)-1-phenylethyl)(phenylsulfonyl)amino]methyl}cyclohexyl)-N-[(4-methylphenyl)methyl]carboxamide] | 3.2 |
| COc1cccc(S(=O)(=O)N(Cc2ccccc2)CC2CCC(C(=O)NCc3ccc(C)cc3)CC2)c1 (stereo not drawn) [Compound 7, [4-({[(3-methoxyphenyl)sulfonyl]benzylamino}methyl)cyclohexyl]-N-[(4-methylphenyl)methyl]carboxamide] | 5.4 |
| CC(=O)Nc1ccc(S(=O)(=O)N(Cc2ccccc2)CC2CCC(C(=O)NCc3ccc(C)cc3)CC2)cc1 (stereo not drawn) [Compound 8, N-[4-({[(4-{N-[(4-methylphenyl)methyl]carbamoyl}cyclohexyl)methyl]benzylamino}sulfonyl)phenyl]acetamide] | 3.1 |
| Cc1ccc(CNC(=O)C2CCC(CN(Cc3ccccc3)S(=O)(=O)c3ccccc3C)CC2)cc1 (stereo not drawn) [Compound 9, N-[(4-methylphenyl)methyl][4-({[(2-methylphenyl)sulfonyl]benzylamino}methyl)cyclohexyl]carboxamide] | 4.9 |
| Cc1ccc(CNC(=O)C2CCC(CN(Cc3ccccc3)S(=O)(=O)c3ccc(F)cc3F)CC2)cc1 (stereo not drawn) [Compound 10, [4-({[(2,4-difluorophenyl)sulfonyl]benzylamino}methyl)cyclohexyl]-N-[(4-methylphenyl)methyl]carboxamide] | 2.2 |
| Cc1ccc(CNC(=O)C2CCC(CN(Cc3ccccc3)S(=O)(=O)c3ccc(Cl)cc3F)CC2)cc1 (stereo not drawn) [Compound 11, [4-({[(4-chloro-2-fluorophenyl)sulfonyl]benzylamino}methyl)cyclohexyl]-N-[(4-methylphenyl)methyl]carboxamide] | 1.9 |
| Cc1ccc(CNC(=O)C2CCC(CN(Cc3ccccc3)S(=O)(=O)c3ccc(F)c(F)c3)CC2)cc1 (stereo not drawn) [Compound 12, [4-({[(3,4-difluorophenyl)sulfonyl]benzylamino}methyl)cyclohexyl]-N-[(4-methylphenyl)methyl]carboxamide] | 2.6 |
| Cc1ccc(CNC(=O)C2CCC(CN(Cc3ccccc3)S(=O)(=O)c3ccc(C(C)(C)C)cc3)CC2)cc1 (stereo not drawn) [Compound 13, {4-[({[4-(tert-butyl)phenyl]sulfonyl}benzylamino)methyl]cyclohexyl}-N-[(4-methylphenyl)methyl]carboxamide] | 2.7 |
| Cc1ccc(CNC(=O)C2CCC(CN(Cc3ccccc3)S(=O)(=O)c3ccc(Cl)cc3Cl)CC2)cc1 (stereo not drawn) [Compound 14, [4-({[(2,4-dichlorophenyl)sulfonyl]benzylamino}methyl)cyclohexyl]-N-[(4-methylphenyl)methyl]carboxamide] | 3.5 |
| Cc1ccc(CNC(=O)C2CCC(CN(Cc3ccccc3)S(=O)(=O)c3cccs3)CC2)cc1 (stereo not drawn) [Compound 15, N-[(4-methylphenyl)methyl](4-{[benzyl(2-thienylsulfonyl)amino]methyl}cyclohexyl)carboxamide] | 4.3 |
| Cc1ccc(CNC(=O)C2CCC(CN(Cc3ccccc3)S(=O)(=O)c3ccc(F)c(F)c3F)CC2)cc1 (stereo not drawn) [Compound 16, N-[(4-methylphenyl)methyl][4-({benzyl[(2,3,4-trifluorophenyl)sulfonyl]amino}methyl)cyclohexyl]carboxamide] | 1.9 |
| Cc1ccc(CNC(=O)C2CCC(CN(Cc3ccccc3)S(=O)(=O)c3cc(F)cc(F)c3)CC2)cc1 (stereo not drawn) [Compound 17, [4-({[(3,5-difluorophenyl)sulfonyl]benzylamino}methyl)cyclohexyl]-N-[(4-methylphenyl)methyl]carboxamide] | 4.5 |
| COc1ccc(S(=O)(=O)N(Cc2ccccc2)CC2CCC(C(=O)NCc3ccc(C)cc3)CC2)cc1OC (stereo not drawn) [Compound 18, [4-({[(3,4-dimethoxyphenyl)sulfonyl]benzylamino}methyl)cyclohexyl]-N-[(4-methylphenyl)methyl]carboxamide] | 1.6 |
| Cc1ccc(CNC(=O)C2CCC(CN(Cc3ccccc3)S(=O)(=O)c3cc(F)ccc3F)CC2)cc1 (stereo not drawn) [Compound 19, [4-({[(2,5-difluorophenyl)sulfonyl]benzylamino}methyl)cyclohexyl]-N-[(4-methylphenyl)methyl]carboxamide] | 4.9 |
| Cc1ccc(CNC(=O)C2CCC(CN(Cc3ccccc3)S(=O)(=O)c3cccc(Cl)c3)CC2)cc1 (stereo not drawn) [Compound 20, [4-({[(3-chlorophenyl)sulfonyl]benzylamino}methyl)cyclohexyl]-N-[(4-methylphenyl)methyl]carboxamide] | 4.3 |
| Cc1ccc(CNC(=O)C2CCC(CN(Cc3ccccc3)S(=O)(=O)c3ccccc3F)CC2)cc1 (stereo not drawn) [Compound 21, [4-({[(2-fluorophenyl)sulfonyl]benzylamino}methyl)cyclohexyl]-N-[(4-methylphenyl)methyl]carboxamide] | 4.4 |
| Cc1ccc(CNC(=O)C2CCC(CN(Cc3ccccc3)S(=O)(=O)c3ccccc3Cl)CC2)cc1 (stereo not drawn) [Compound 22, [4-({[(2-chlorophenyl)sulfonyl]benzylamino}methyl)cyclohexyl]-N-[(4-methylphenyl)methyl]carboxamide] | 4.1 |
| Cc1ccc(CNC(=O)C2CCC(CN(Cc3ccccc3)S(=O)(=O)c3cc(C)cc(C)c3)CC2)cc1 (stereo not drawn) [Compound 23, [4-({[(3,5-dimethylphenyl)sulfonyl]benzylamino}methyl)cyclohexyl]-N-[(4-methylphenyl)methyl]carboxamide] | 4.1 |
| Cc1ccc(CNC(=O)C2CCC(CN(Cc3ccccc3)S(=O)(=O)c3cc(C(F)(F)F)cc(C(F)(F)F)c3)CC2)cc1 (stereo not drawn) [Compound 24, {4-[({[3,5-bis(trifluoromethyl)phenyl]sulfonyl}benzylamino)methyl]cyclohexyl}-N-[(4-methylphenyl)methyl]carboxamide] | 0.9 |
| Cc1ccc(CNC(=O)C2CCC(CN(Cc3ccccc3)S(=O)(=O)c3ccc(C)c(Cl)c3)CC2)cc1 (stereo not drawn) [Compound 25, [4-({[(3-chloro-4-methylphenyl)sulfonyl]benzylamino}methyl)cyclohexyl]-N-[(4-methylphenyl)methyl]carboxamide] | 3.5 |
| Cc1ccc(CNC(=O)C2CCC(CN(Cc3ccccc3)S(=O)(=O)c3cc(F)ccc3C)CC2)cc1 (stereo not drawn) [Compound 26, [4-({[(5-fluoro-2-methylphenyl)sulfonyl]benzylamino}methyl)cyclohexyl]-N-[(4-methylphenyl)methyl]carboxamide] | 4.3 |
| Cc1ccc(CNC(=O)C2CCC(CN(Cc3ccccc3)S(=O)(=O)c3cc(Cl)ccc3Cl)CC2)cc1 (stereo not drawn) [Compound 27, [4-({[(2,5-dichlorophenyl)sulfonyl]benzylamino}methyl)cyclohexyl]-N-[(4-methylphenyl)methyl]carboxamide] | 3.7 |
| Cc1ccc(CNC(=O)C2CCC(CN(Cc3ccccc3)S(=O)(=O)c3c(F)cccc3F)CC2)cc1 (stereo not drawn) [Compound 29, [4-({[(2,6-difluorophenyl)sulfonyl]benzylamino}methyl)cyclohexyl]-N-[(4-methylphenyl)methyl]carboxamide] | 6.9 |
| CC(=O)Nc1nc(C)c(S(=O)(=O)N(Cc2ccccc2)CC2CCC(C(=O)NCc3ccc(C)cc3)CC2)s1 (stereo not drawn) [Compound 30, N-[4-methyl-5-({[(4-{N-[(4-methylphenyl)methyl]carbamoyl}cyclohexyl)methyl]benzylamino}sulfonyl)-1,3-thiazol-2-yl]acetamide] | 3.9 |
| Cc1ccc(CNC(=O)C2CCC(CN(Cc3ccccc3)S(=O)(=O)c3cccc(F)c3)CC2)cc1 (stereo not drawn) [Compound 31, [4-({[(3-fluorophenyl)sulfonyl]benzylamino}methyl)cyclohexyl]-N-[(4-methylphenyl)methyl]carboxamide] | 6.7 |
